# Test results taken from the Kinase Knowledgebase extract (Sharma et al. 2016).
# Target: PIK3CG (human) (UniProt P48736)
# Assay: Inhibition of PIK3CG Kinase Activity
# Sequence of PIK3CG (human) (P48736 whole entry, looked up): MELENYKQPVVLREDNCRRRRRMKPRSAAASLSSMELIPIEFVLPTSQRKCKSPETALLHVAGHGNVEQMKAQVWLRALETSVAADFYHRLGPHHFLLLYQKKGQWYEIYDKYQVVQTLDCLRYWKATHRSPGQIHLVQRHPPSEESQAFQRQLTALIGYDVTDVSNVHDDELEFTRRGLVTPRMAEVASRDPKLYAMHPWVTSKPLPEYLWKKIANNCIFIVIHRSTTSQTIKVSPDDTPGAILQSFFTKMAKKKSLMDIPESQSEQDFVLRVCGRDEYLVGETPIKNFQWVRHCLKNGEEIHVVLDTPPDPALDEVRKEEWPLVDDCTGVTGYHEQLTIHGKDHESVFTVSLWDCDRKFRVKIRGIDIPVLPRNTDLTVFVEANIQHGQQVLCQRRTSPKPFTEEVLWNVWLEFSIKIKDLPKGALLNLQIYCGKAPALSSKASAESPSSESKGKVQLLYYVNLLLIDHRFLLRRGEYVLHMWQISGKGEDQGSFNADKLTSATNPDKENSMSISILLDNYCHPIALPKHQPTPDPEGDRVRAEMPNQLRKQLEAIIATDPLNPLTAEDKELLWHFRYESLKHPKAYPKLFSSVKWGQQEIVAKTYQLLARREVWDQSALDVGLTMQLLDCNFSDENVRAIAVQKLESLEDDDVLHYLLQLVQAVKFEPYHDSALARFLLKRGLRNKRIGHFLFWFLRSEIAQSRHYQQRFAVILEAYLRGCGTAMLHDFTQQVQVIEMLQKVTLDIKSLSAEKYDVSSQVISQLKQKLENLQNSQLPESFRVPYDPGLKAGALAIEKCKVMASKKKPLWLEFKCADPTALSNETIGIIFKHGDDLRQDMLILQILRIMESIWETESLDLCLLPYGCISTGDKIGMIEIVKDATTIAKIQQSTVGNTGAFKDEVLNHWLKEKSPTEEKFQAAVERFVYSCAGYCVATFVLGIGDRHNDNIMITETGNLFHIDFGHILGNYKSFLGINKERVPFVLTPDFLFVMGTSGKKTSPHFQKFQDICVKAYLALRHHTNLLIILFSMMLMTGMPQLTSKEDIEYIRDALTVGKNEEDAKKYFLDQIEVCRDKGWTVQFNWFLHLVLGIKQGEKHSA
row,Compound,IC50
1,CC(=O)Nc1nc2c(s1)-c1c(c(C3CC3)nn1-c1ccc(C(=O)N3CC[C@H](CN4CCCC4)C3)cc1Cl)CC2,< 600 nM
2,CC(=O)Nc1nc2c(s1)-c1c(c(C3CC3)nn1-c1ccc(C(=O)N[C@@H]3CCN(C4CCCCC4)C3)cc1C)CC2,< 600 nM
3,CCCN1CCC(C(=O)N2CCC(n3nc(C4CC4)c4c3-c3sc(NC(C)=O)nc3CC4)CC2)CC1,< 600 nM
4,CC(=O)Nc1nc2c(s1)-c1c(c(C3CC3)nn1-c1ccc(C(=O)NC3CCN(CC4CCCC4)CC3)c(Cl)c1)CC2,< 600 nM
5,CC(=O)Nc1nc2c(s1)-c1c(c(C3CC3)nn1-c1ccc(C(=O)N(C)C3CCN(C4CCCC4)CC3)cc1Cl)CC2,< 600 nM
6,CC(=O)Nc1nc2c(s1)-c1c(c(C3CC3)nn1-c1ccc(C(=O)N[C@H]3CC[C@H](C(N)=O)CC3)cc1Cl)CC2,< 600 nM
7,CC(=O)Nc1nc2c(s1)-c1c(c(C3CC3)nn1-c1ccc(C(=O)N[C@H]3CC[C@@H](N(C)CC4CCCC4)CC3)c(F)c1)CC2,< 600 nM
8,CCN(C(=O)c1ccc(-n2nc(C3CC3)c3c2-c2sc(NC(C)=O)nc2CC3)c(Cl)c1)[C@H]1CC[C@@H](N2CCCC2)CC1,< 600 nM
9,CC(=O)Nc1nc2c(s1)-c1c(c(C3CC3)nn1-c1ccc(C(=O)N(C)[C@H]3CCN(C4CCCCC4)C3)cc1Cl)CC2,< 600 nM
10,CCCN1CC[C@@H](NC(=O)c2ccc(-n3nc(C4CC4)c4c3-c3sc(NC(C)=O)nc3CC4)c(C)c2)C1,< 600 nM
11,CNC(=O)c1ccc(-n2nc(C3CCCC3)c3c2-c2sc(NC(C)=O)nc2CC3)c(Cl)c1,< 600 nM
12,CC(=O)Nc1nc2c(s1)-c1c(c(C3CC3)nn1-c1ccc(C(=O)N(C)C3CCC(N4CCCC4)CC3)c(F)c1)CC2 (stereo not drawn),< 600 nM
13,CC(=O)Nc1nc2c(s1)-c1c(c(C3CC3)nn1-c1ccc(C(=O)NC3CCN(CC4CCCC4)CC3)cc1Cl)CC2,< 600 nM
14,CC(=O)Nc1nc2c(s1)-c1c(c(C3CC3)nn1-c1ccc(NCC3CCN(C)CC3)cc1Cl)CC2,< 600 nM
15,COc1cc(-n2nc(C3CC3)c3c2-c2sc(NC(C)=O)nc2CC3)ccc1C(=O)N1CCC(N(C)C2CCCC2)CC1,< 600 nM
16,CC(=O)Nc1nc2c(s1)-c1c(c(C3CC3)nn1-c1ccc(C(=O)N[C@@H]3CCN(CC4CCCC4)C3)c(F)c1)CC2,< 600 nM
17,CC(=O)Nc1nc2c(s1)-c1c(c(C3CC3)nn1-c1ccc(C(=O)N[C@H]3CC[C@@H](N(C)CC4CC4)CC3)c(C)c1)CC2,< 600 nM
18,CCCN1CC[C@@H](NC(=O)c2ccc(-n3nc(C4CC4)c4c3-c3sc(NC(C)=O)nc3CC4)cc2Cl)C1,< 600 nM
19,CC(=O)Nc1nc2c(s1)-c1c(c(C3CC3)nn1-c1ccc(C(=O)N[C@H]3CC[C@@H](N4CCCC4)CC3)c(C)c1)CC2,< 600 nM
20,CC(=O)Nc1nc2c(s1)-c1c(c(C3CC3)nn1-c1ccc(C(=O)N(C)[C@H]3CC[C@@H](N4CCCC4)CC3)cc1C)CC2,< 600 nM
21,CC(=O)Nc1nc2c(s1)-c1c(c(C3CC3)nn1-c1ccc(C(=O)N(C)[C@@H]3CCN(C4CCCC4)C3)cc1C)CC2,< 600 nM
22,CC(=O)Nc1nc2c(s1)-c1c(c(C3CC3)nn1-c1ccc(C(=O)N(C)[C@H]3CCN(C4CCCCC4)C3)c(Cl)c1)CC2,< 600 nM

# The next lines start with the values.
row,IC50,Compound
1,< 600 nM,CC(=O)Nc1nc2c(s1)-c1c(c(C3CC3)nn1-c1ccc(C(=O)N(C)[C@H]3CC[C@@H](N(C)CC4CC4)CC3)c(C)c1)CC2
2,< 600 nM,CC(=O)Nc1nc2c(s1)-c1c(c(C3CC3)nn1-c1ccc(C(=O)N3CCC(N(C)C4CCCC4)CC3)c(Cl)c1)CC2
3,< 600 nM,CC(=O)Nc1nc2c(s1)-c1c(c(C3CC3)nn1-c1ccc(C(=O)N[C@H]3CCN(C4CCCCC4)C3)cc1F)CC2
4,< 600 nM,CC(=O)Nc1nc2c(s1)-c1c(c(C3CC3)nn1C1CCN(C(=O)N3CCN(C4CCCC4)CC3)CC1)CC2
5,< 600 nM,CC(=O)Nc1nc2c(s1)-c1c(c(C3CC3)nn1-c1ccc(C(=O)N[C@@H]3CCN(C4CCCCC4)C3)c(C)c1)CC2
6,< 600 nM,CC(=O)Nc1nc2c(s1)-c1c(c(C3CC3)nn1[C@H]1CC[C@@H](C(=O)NC3CCN(C4CCCC4)CC3)CC1)CC2
7,< 600 nM,CC(=O)Nc1nc2c(s1)-c1c(c(C3CC3)nn1-c1ccc(CC(=O)NC3CCN(C4CCCC4)CC3)cc1Cl)CC2
8,< 600 nM,CC(=O)Nc1nc2c(s1)-c1c(c(C3CC3)nn1-c1ccc(C(=O)N3CC[C@H](CN4CCCC4)C3)c(Cl)c1)CC2
9,< 600 nM,CC(=O)Nc1nc2c(s1)-c1c(c(C3CC3)nn1-c1ccc(C(=O)N[C@@H]3CCN(CC4CCCC4)C3)cc1C)CC2
10,< 600 nM,CCCN1CCC(CNc2ccc(-n3nc(C4CC4)c4c3-c3sc(NC(C)=O)nc3CC4)c(Cl)c2)CC1
11,< 600 nM,CC(=O)Nc1nc2c(s1)-c1c(c(C3CC3)nn1-c1ccc(C(=O)N(C)[C@H]3CC[C@@H](N4CCCCC4)CC3)cc1F)CC2
12,< 600 nM,CC(=O)Nc1nc2c(s1)-c1c(c(C3CC3)nn1C1CCN(C(=O)C3CCN(C4CCCC4)CC3)CC1)CC2
13,< 600 nM,CC(=O)Nc1nc2c(s1)-c1c(c(C3CC3)nn1-c1ccc(NC(=O)[C@H]3CC[C@@H](N4CCCC4)CC3)cc1Cl)CC2
14,< 600 nM,CC(=O)Nc1nc2c(s1)-c1c(c(C3CC3)nn1-c1ccc(C(=O)NC3CCN(C4CCCC4)CC3)c(C)c1)CC2
15,< 600 nM,CC(=O)Nc1nc2c(s1)-c1c(c(C3CC3)nn1-c1ccc(C(=O)NC3CCN(CC4CCCCC4)CC3)c(Cl)c1)CC2
16,< 600 nM,CC(=O)Nc1nc2c(s1)-c1c(c(C3CC3)nn1-c1ccc(C(=O)NC[C@H]3CCCN3C3CCCC3)c(Cl)c1)CC2

row,IC50,Compound
1,< 600 nM,CC(=O)Nc1nc2c(s1)-c1c(c(C3CC3)nn1-c1ccc(CC(N)=O)cc1Cl)CC2
2,< 600 nM,CC(=O)Nc1nc2c(s1)-c1c(c(C3CC3)nn1-c1ccc(C(=O)N[C@H]3CC[C@@H](N(C)CC4CC4)CC3)cc1F)CC2
3,< 600 nM,CC(=O)Nc1nc2c(s1)-c1c(c(C3CC3)nn1-c1ccc(C(=O)NC[C@@H]3CCN(CC4CCCC4)C3)c(Cl)c1)CC2
4,< 600 nM,CC(=O)Nc1nc2c(s1)-c1c(c(C3CC3)nn1-c1ccccc1C(F)(F)F)CC2
5,< 600 nM,CC(=O)Nc1nc2c(s1)-c1c(c(C3CCCC3)nn1-c1ccc(C(=O)NC3CCN(C(C)C)CC3)cc1Cl)CC2
6,< 600 nM,CC(=O)Nc1nc2c(s1)-c1c(c(C3CC3)nn1-c1ccc(C(=O)NC3CCN(CC4CCCCC4)CC3)cc1F)CC2
7,< 600 nM,CC(=O)Nc1nc2c(s1)-c1c(c(C3CC3)nn1-c1ccc(C(=O)N(C)[C@H]3CC[C@@H](N4CCCCC4)CC3)c(Cl)c1)CC2
8,< 600 nM,CC(=O)Nc1nc2c(s1)-c1c(c(C3CC3)nn1-c1ccc(C(=O)N(C)[C@@H]3CCN(CC4CCCC4)C3)c(Cl)c1)CC2
9,< 600 nM,CNC(=O)Cc1ccc(-n2nc(C3CC3)c3c2-c2sc(NC(C)=O)nc2CC3)c(Cl)c1
10,< 600 nM,CC(=O)Nc1nc2c(s1)-c1c(c(C3CC3)nn1-c1ccc(C(=O)N(C)[C@@H]3CCN(C4CCCC4)C3)c(C)c1)CC2
11,< 600 nM,CC(=O)Nc1nc2c(s1)-c1c(c(C3CC3)nn1-c1ccc(C(=O)NC3CCN(C4CCCCC4)CC3)cc1Cl)CC2
12,< 600 nM,CCCN1CCC(NC(=O)c2ccc(-n3nc(C4CCC4)c4c3-c3sc(NC(C)=O)nc3CC4)c(Cl)c2)CC1
13,< 600 nM,CC(=O)Nc1nc2c(s1)-c1c(c(C3CC3)nn1-c1ccc(C(=O)NCC3CCN(C4CCCC4)CC3)c(Cl)c1)CC2
14,< 600 nM,CC(=O)Nc1nc2c(s1)-c1c(c(C3CC3)nn1-c1ccc(C(=O)NC3CCN(CC4CCCC4)CC3)cc1C)CC2
15,< 600 nM,CC(=O)Nc1nc2c(s1)-c1c(c(C3CC3)nn1-c1ccc(C(=O)N[C@H]3CC[C@@H](N4CCCC4)CC3)cc1Cl)CC2
